From PMC6478789, “A chemical toolbox for the study of bromodomains and epigenetic signaling” (Nature Communications, 2019)

Experiments:
Experiment in all cases: Methyl transferase scintillation proximity assay
Assay type in all cases: biochemical
Details in all cases: average of two measurements; for inhibition at 10 µM: read-out: MTases Inhibition (%)
BCDIN3D = molecular target: T1, BCDIN3D (Homo sapiens, UniProt Q7Z5W3)
T1 construct: purchased DiscoverX BROMOscan (bromodomains); SGC in-house methyltransferase panel
T1 sequence (Q7Z5W3 1-292): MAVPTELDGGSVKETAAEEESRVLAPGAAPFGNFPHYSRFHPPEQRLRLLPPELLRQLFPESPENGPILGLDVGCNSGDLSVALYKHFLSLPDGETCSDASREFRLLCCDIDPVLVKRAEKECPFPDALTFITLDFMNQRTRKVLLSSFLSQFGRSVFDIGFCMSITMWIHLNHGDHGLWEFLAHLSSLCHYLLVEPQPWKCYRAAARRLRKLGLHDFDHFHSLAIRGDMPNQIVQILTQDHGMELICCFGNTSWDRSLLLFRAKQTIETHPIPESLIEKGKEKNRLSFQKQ
Description: (§1) Assays measuring lysine and arginine methyl transferase activity have been described in Scheer et al.. A radioactivity-based scintillation proximity assay was used to monitor incorporation of a tritium-labeled methyl group into the biotinylated substrate of the methyl transferase. A 10-μl reaction containing ^3H-SAM and substrate at concentrations close to the apparent Km values for each enzyme was prepared. The reactions were quenched with 10 μl of 7.5 M guanidine hydrochloride; 180 μl of 20 mM Tris buffer (pH 8.0) were added; and the mixture was transferred to a 96-well FlashPlate and incubated for 1 h. The counts per minute (CPM) was measured on a TopCount plate reader. The CPM in the absence of compound or enzyme was defined as 100% activity and background (0%), respectively, for each dataset.

MLL1 (Trimeric) = molecular target: T2, MLL1 (Trimeric) (Homo sapiens, UniProt Q03164)
T2 construct: purchased DiscoverX BROMOscan (bromodomains); SGC in-house methyltransferase panel
Description: as §1

NSD3 = molecular target: T3, NSD3 (Homo sapiens, UniProt Q9BZ95)
T3 construct: purchased DiscoverX BROMOscan (bromodomains); SGC in-house methyltransferase panel
T3 sequence (Q9BZ95 1-1437): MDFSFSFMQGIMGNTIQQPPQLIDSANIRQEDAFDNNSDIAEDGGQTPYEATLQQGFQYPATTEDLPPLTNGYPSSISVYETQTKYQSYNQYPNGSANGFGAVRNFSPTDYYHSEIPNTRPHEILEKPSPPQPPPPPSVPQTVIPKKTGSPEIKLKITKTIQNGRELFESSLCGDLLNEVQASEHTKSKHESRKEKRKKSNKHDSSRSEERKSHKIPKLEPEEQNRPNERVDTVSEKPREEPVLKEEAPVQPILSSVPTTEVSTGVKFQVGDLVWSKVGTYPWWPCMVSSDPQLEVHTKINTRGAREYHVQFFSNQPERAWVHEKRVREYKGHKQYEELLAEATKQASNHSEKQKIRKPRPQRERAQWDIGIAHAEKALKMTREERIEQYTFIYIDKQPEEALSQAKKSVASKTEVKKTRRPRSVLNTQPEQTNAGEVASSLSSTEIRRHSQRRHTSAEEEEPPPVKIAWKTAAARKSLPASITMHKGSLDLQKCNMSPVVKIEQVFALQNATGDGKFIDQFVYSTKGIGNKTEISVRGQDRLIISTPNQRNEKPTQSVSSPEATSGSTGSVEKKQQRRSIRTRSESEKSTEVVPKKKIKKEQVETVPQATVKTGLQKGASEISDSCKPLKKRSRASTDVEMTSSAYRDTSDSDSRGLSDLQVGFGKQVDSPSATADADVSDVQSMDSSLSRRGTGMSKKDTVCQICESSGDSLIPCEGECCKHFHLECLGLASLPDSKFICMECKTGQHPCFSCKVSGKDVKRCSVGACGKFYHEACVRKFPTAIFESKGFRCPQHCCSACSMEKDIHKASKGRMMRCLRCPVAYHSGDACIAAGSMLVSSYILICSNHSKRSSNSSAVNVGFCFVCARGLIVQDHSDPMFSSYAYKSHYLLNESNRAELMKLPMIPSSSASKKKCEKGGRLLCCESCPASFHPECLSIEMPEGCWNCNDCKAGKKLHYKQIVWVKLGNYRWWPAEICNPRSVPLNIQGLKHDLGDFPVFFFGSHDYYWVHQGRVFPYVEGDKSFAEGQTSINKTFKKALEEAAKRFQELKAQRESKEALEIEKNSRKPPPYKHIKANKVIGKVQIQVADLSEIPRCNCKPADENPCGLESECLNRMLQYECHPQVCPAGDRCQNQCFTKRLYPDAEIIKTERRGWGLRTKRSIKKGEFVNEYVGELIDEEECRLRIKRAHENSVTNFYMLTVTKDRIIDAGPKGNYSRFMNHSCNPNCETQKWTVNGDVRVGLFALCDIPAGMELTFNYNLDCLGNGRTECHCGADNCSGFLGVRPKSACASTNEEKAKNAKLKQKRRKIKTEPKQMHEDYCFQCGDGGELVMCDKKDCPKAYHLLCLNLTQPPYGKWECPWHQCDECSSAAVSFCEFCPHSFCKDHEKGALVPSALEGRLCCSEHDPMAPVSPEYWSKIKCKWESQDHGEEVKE
Description: as §1

PRDM9 = molecular target: T4, PRDM9 (Homo sapiens, UniProt Q9NQV7)
T4 construct: purchased DiscoverX BROMOscan (bromodomains); SGC in-house methyltransferase panel
T4 sequence (Q9NQV7 whole entry): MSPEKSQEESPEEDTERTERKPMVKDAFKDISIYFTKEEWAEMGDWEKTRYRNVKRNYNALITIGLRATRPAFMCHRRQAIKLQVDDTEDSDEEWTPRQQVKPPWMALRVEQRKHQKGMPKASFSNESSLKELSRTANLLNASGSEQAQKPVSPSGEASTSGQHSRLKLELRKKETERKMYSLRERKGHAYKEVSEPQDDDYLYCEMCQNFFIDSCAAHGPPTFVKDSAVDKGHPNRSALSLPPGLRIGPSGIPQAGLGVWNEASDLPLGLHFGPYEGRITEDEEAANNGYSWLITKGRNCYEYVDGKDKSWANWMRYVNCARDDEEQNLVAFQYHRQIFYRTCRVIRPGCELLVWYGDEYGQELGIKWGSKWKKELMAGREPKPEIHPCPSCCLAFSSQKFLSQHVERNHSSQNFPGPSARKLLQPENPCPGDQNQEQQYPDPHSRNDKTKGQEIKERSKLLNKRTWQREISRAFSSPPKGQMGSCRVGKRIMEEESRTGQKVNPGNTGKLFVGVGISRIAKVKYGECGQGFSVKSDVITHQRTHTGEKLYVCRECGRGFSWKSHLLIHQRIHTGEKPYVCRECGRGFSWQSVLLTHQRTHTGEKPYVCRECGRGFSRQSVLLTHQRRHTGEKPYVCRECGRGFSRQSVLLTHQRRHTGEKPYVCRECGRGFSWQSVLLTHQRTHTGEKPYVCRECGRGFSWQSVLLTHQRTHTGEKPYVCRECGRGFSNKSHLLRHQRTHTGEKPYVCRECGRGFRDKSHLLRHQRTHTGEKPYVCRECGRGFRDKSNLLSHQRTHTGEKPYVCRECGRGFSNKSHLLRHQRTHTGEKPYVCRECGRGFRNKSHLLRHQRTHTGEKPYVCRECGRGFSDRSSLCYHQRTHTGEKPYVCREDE
Description: as §1

PRMT1 = molecular target: T5, PRMT1 (Homo sapiens, UniProt Q99873)
T5 construct: purchased DiscoverX BROMOscan (bromodomains); SGC in-house methyltransferase panel
T5 sequence (Q99873 whole entry): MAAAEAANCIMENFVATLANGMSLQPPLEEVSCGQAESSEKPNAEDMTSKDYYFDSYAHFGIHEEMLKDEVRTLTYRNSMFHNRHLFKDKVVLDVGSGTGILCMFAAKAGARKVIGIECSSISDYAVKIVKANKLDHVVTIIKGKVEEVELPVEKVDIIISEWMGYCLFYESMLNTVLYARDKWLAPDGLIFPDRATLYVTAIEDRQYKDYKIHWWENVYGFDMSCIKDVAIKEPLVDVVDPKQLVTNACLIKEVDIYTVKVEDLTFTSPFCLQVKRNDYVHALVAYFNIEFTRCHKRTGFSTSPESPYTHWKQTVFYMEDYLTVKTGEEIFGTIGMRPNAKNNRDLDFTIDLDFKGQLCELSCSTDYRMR
Description: as §1

PRMT4 = molecular target: T6, PRMT4 (Homo sapiens, UniProt Q86X55)
T6 construct: purchased DiscoverX BROMOscan (bromodomains); SGC in-house methyltransferase panel
T6 sequence (Q86X55 1-608): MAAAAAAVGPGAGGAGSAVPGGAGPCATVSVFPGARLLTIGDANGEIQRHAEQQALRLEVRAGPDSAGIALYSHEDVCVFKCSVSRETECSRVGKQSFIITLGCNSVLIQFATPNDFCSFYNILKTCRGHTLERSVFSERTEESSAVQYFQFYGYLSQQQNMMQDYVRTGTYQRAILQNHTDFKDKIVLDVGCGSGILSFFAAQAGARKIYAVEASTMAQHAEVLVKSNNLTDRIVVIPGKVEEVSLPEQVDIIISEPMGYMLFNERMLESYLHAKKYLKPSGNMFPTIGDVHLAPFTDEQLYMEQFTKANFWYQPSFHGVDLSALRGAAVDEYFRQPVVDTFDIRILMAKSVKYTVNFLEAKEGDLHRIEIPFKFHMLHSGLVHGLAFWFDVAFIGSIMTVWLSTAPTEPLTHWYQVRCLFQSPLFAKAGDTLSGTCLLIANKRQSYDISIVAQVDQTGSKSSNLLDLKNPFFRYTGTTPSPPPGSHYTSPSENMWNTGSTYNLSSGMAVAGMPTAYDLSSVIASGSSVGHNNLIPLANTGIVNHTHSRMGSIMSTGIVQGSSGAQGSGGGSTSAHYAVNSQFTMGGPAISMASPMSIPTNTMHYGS
Description: as §1

SETDB1 = molecular target: T7, SETDB1 (Homo sapiens, UniProt Q15047)
T7 construct: purchased DiscoverX BROMOscan (bromodomains); SGC in-house methyltransferase panel
Description: as §1

SUV420H2 = molecular target: T8, SUV420H2 (Homo sapiens, UniProt Q86Y97)
T8 construct: purchased DiscoverX BROMOscan (bromodomains); SGC in-house methyltransferase panel
T8 sequence (Q86Y97 whole entry): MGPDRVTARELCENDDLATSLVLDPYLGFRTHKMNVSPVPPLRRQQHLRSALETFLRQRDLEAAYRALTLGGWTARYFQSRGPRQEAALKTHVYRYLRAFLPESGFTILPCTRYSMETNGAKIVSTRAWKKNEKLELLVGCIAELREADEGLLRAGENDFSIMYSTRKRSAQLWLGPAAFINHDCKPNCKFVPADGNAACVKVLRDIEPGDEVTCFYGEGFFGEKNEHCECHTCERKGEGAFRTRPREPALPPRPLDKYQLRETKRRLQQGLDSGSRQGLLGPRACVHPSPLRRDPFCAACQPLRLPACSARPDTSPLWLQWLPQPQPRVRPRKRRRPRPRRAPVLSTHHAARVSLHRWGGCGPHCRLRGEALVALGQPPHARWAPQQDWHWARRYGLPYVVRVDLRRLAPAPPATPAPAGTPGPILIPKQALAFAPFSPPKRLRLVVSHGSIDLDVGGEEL
Description: as §1

| SMILES | inhibition at 10 µM (BCDIN3D) [%] | inhibition at 10 µM (MLL1 (Trimeric)) [%] | inhibition at 10 µM (NSD3) [%] | inhibition at 10 µM (PRDM9) [%] | inhibition at 10 µM (PRMT1) [%] | inhibition at 10 µM (PRMT4) [%] | inhibition at 10 µM (SETDB1) [%] | inhibition at 10 µM (SUV420H2) [%] | MTases Inhibition (%) (BCDIN3D; 10µM) | MTases Inhibition (%) (MLL1 (Trimeric); 10µM) | MTases Inhibition (%) (NSD3; 10µM) | MTases Inhibition (%) (PRDM9; 10µM) | MTases Inhibition (%) (PRMT1; 10µM) | MTases Inhibition (%) (PRMT4; 10µM) | MTases Inhibition (%) (SETDB1; 10µM) | MTases Inhibition (%) (SUV420H2; 10µM) |
| --- | --- | --- | --- | --- | --- | --- | --- | --- | --- | --- | --- | --- | --- | --- | --- | --- |
| Cc1c(NC(=O)c2cc(C(N)=O)nc3cc(F)ccc23)c(C(F)(F)F)nn1Cc1ccc(C(C)(C)C)cc1 [BAY-588] | 16 | 7 | -2 | 3 | 0 | 9 | 5 | -3 |  |  |  |  |  |  |  |  |
| COc1cc(Cl)c(C(=O)N[C@@H](CN[C@H]2CC[C@@H](N)CC2)Cc2ccc(C#N)cc2)cc1-c1ccc(CN[C@H](C)c2ccc(C)cc2)o1 [BAY-850] | 28 | -1 | 14 | 10 | 15 | 25 | 8 | 0 |  |  |  |  |  |  |  |  |
| Cc1c(NC(=O)c2cc(C(N)=O)nc3cc(F)ccc23)c(C(F)(F)F)nn1Cc1ccc(C#N)cc1 [BAY-876] | 17 | 11 | 3 | 0 | 2 | 1 | -4 | -1 |  |  |  |  |  |  |  |  |
| Cc1nnc2c3ccccc3c(N[C@@H](C)[C@H](c3ccccc3)N(C)C)nn12 [L-Moses] | 9 | 20 | 5 | 4 | -2 | 6 | 1 | 6 |  |  |  |  |  |  |  |  |
| CN(C)CCCOc1ccc(-c2cc(NCCCn3cccn3)nc(S(C)(=O)=O)n2)cc1 [TP-238] | 4 | 17 | 15 | -1 | 0 | 3 | -1 | 0 |  |  |  |  |  |  |  |  |

Now from value to compound:

| inhibition at 10 µM (BCDIN3D) [%] | inhibition at 10 µM (MLL1 (Trimeric)) [%] | inhibition at 10 µM (NSD3) [%] | inhibition at 10 µM (PRDM9) [%] | inhibition at 10 µM (PRMT1) [%] | inhibition at 10 µM (PRMT4) [%] | inhibition at 10 µM (SETDB1) [%] | inhibition at 10 µM (SUV420H2) [%] | MTases Inhibition (%) (BCDIN3D; 10µM) | MTases Inhibition (%) (MLL1 (Trimeric); 10µM) | MTases Inhibition (%) (NSD3; 10µM) | MTases Inhibition (%) (PRDM9; 10µM) | MTases Inhibition (%) (PRMT1; 10µM) | MTases Inhibition (%) (PRMT4; 10µM) | MTases Inhibition (%) (SETDB1; 10µM) | MTases Inhibition (%) (SUV420H2; 10µM) | SMILES |
| --- | --- | --- | --- | --- | --- | --- | --- | --- | --- | --- | --- | --- | --- | --- | --- | --- |
| 14 | 8 | 10 | 3 | 4 | -2 | -1 | -1 |  |  |  |  |  |  |  |  | CN1C[C@H](Nc2cnn(C)c(=O)c2Br)C[C@H](c2ccccc2)C1 [GSK4027] |
|  |  |  |  |  |  |  |  | 5 | 7 | 7 | -2 | -7 | 2 | 1 | -2 | COc1ccccc1C(=O)Nc1cc2c(cc1N1CCNC[C@H]1C)n(C)c(=O)n2C [GSK6853] |
| 7 | 6 | 13 | 0 | 3 | 1 | 1 | 0 |  |  |  |  |  |  |  |  | CO[C@H]1CNC[C@@H](OCC2CCC(F)(F)CC2)[C@@H]1Nc1ncc(-c2cncc(C)c2)c2cc(C)c(=O)[nH]c12 [GSK8814] |
